Source: patent publication US20200000816A1, “COMPOUND HAVING SOMATOSTATIN RECEPTOR AGONISTIC ACTIVITY AND PHARMACEUTICAL USE THEREOF” (ONO PHARMACEUTICAL CO., LTD., priority 2017, published 2020)

Experiments:
human SSTR2 = biological target: T1, human SSTR2 (Homo sapiens, UniProt P30874); assay: Evaluation of SSTR2 agonistic activity using cells expressing human SSTR2 (suppression of forskolin-stimulated cAMP production, SSTR2-CHO-K1); assay type: cell-based; conditions: suppression of cAMP production by forskolin stimulation, 1000 nmol/L octreotide = 100%
T1 construct: Myc; expressed in transfected cells

hERG K+ channel = biological target: T2, hERG K+ channel (Homo sapiens, UniProt Q12809); assay: Evaluation of hERG K+ channel inhibitory activity using cells expressing human ERG (automated patch-clamp, CHO-K1); assay type: cell-based; conditions: CHO-K1 cells with human ERG gene, tested at 1, 3 and 10 μmol/L, 5-minute incubation
T2 construct: expressed in transfected cells; host or cells: CHO-K1
Procedure: Evaluation of hERG K^+ Channel Inhibitory Activity Using Cells Expressing Human ERG
CHO-K1 cells having the human ERG gene (ether-a-go-go related gene) introduced therein were subcultured in an F-12 medium [F-12 Nutrient Mixture (HAM)] containing 10% inactivated foetal bovine serum, 100 IU/mL penicillin-100 μg/mL streptomycin and 200 μg/mL geneticin.
Patch-clamp was performed in a full-automated manner using CHO-K1 cells having the human ERG gene introduced therein and having a perforated patch formed therein with amphotericin B. For the experiment, a 384-well PatchPlate™ was used and the cell suspension and compounds were added thereto. The IKr current was measured with command voltages of holding potential of −80 mV, depolarization potential of +40 mV (2 seconds) and repolarization potential of −50 mV (2 seconds). The stimulation frequency was twice (single pulse stimulations) before and after the treatment with a drug (the concentrations of a compound for evaluation were 1, 3 and 10 μmol/L, a 5-minute incubation), and the Ikr maximum current was measured. The inhibition (%) on the CHO-K1 cells having the human ERG gene introduced therein was determined by correcting the variation in the maximum tail current before and after addition of the test substance by the variation thereof in the group treated with a medium (inhibition (%)=(1-variation in current before and after addition of a test substance/variation in current before and after addition of a medium)×100). The 50% inhibitory concentration (IC50 value) was calculated from a line connecting two points on both sides of the inhibition of 50%.

GH secretion = assay: Evaluation of suppression of growth hormone (GH) secretion using rats (GHRH-induced); assay type: in vivo; conditions: Rattus norvegicus, 5 min, oral, dosage of 1 mg/kg, GHRH given 8 hours after dosing, blood GH 5 minutes after GHRH
Procedure: A medium (distilled water (Otsuka distilled water, Otsuka Pharmaceutical Factory, Inc.)) or a test compound dissolved in the medium was orally administered to rats (7-week old male Crl:CD(SD) IGS rats (Charles River Laboratories Japan, Inc.)) and after 7 hours and 57 minutes, the animals were administered with 50 mg/kg of pentobarbital sodium (Somnopentyl, Kyoritsu Seiyaku Corporation) via the tail vein for anaesthesia. Three minutes after administration of pentobarbital sodium, the rats were administered with 0.01 mg/kg of growth hormone-releasing hormone (GHRH, Bachem) via the tail vein to induce GH secretion. In order to measure the blood GH concentration, 0.2 mL of blood was collected through the jugular vein at 5 minutes after administration of GHRH. The collected blood was centrifuged at 4° C., 13,000×g for 5 minutes to obtain plasma. The blood GH concentration was measured by using Rat/Mouse Growth Hormone ELISA (Millipore) following the instruction of the kit. The percentage (%) of suppression of GH secretion was determined by using the obtained blood GH concentration and the equation {[suppression (%) of GH secretion]=([blood GH concentration of the group administered with the medium]−[blood GH concentration of the group administered with a test compound])/[blood GH concentration of the group administered with the medium]×100}. In the equation, the group administered with the medium represents the group of animals administered with the medium and the group administered with a test compound represents the group of animals administered with a test compound dissolved in the medium.

[1] = system: Chinese hamster lung-derived CHL/IU cells; assay: Evaluation of phospholipidosis induction ability using cultured cell line (NBD-PE incorporation); assay type: cell-based; conditions: 24 hours, positive = 25% or more of amiodarone maximum reaction at cell viability 50% or more; for phospholipidosis induction ability (judgement): 6.25-100 μmol/L
Procedure: Chinese hamster lung-derived CHL/IU cells were suspended in an MEM-E culture solution containing non-essential amino acids, sodium pyruvate and 10% foetal bovine serum and seeded in a 96-well plate. The cells cultured overnight in an incubator (5% carbon dioxide, 95% air, 37° C.) were further cultured for 24 hours after replacing the culture solution with a culture solution containing 6.25, 12.5, 25, 50 or 100 μmol/L of a test substance and NBD-PE (fluorescence label N-(7-nitrobenz-2-oxa-1,3-diazol-4-yl)-1,2-dihexadecanoyl-sn-glycero-3-phosphoethanolamine triethylammonium salt) obtained from Molecular Probes. The phospholipidosis induction ability was evaluated by measuring the concentration of NBD-PE incorporated into the cells. Specifically, the cells were washed twice with PBS and then measured for the fluorescence of NBD-PE (excitation wavelength: 485 nm, fluorescence wavelength: 535 nm) incorporated in the cells on a SpectraMax plate reader available from Molecular Devices, LLC. for evaluation. After measurement of the fluorescence of NBD-PE, the cell viability was evaluated with Premix WST-1 Cell Proliferation Assay System available from TaKaRa Bio Inc. The phospholipidosis induction ability was judged to be positive when, at a dose that provided a cell viability of 50% or more, the reaction (the concentration of NBD-PE incorporated after administration of a test substance) was 25% or more of the maximum reaction of a positive control amiodarone (the concentration of NBD-PE incorporated into the cells after administration of amiodarone was regarded as 100%).

T2 sequence (Q12809 whole entry): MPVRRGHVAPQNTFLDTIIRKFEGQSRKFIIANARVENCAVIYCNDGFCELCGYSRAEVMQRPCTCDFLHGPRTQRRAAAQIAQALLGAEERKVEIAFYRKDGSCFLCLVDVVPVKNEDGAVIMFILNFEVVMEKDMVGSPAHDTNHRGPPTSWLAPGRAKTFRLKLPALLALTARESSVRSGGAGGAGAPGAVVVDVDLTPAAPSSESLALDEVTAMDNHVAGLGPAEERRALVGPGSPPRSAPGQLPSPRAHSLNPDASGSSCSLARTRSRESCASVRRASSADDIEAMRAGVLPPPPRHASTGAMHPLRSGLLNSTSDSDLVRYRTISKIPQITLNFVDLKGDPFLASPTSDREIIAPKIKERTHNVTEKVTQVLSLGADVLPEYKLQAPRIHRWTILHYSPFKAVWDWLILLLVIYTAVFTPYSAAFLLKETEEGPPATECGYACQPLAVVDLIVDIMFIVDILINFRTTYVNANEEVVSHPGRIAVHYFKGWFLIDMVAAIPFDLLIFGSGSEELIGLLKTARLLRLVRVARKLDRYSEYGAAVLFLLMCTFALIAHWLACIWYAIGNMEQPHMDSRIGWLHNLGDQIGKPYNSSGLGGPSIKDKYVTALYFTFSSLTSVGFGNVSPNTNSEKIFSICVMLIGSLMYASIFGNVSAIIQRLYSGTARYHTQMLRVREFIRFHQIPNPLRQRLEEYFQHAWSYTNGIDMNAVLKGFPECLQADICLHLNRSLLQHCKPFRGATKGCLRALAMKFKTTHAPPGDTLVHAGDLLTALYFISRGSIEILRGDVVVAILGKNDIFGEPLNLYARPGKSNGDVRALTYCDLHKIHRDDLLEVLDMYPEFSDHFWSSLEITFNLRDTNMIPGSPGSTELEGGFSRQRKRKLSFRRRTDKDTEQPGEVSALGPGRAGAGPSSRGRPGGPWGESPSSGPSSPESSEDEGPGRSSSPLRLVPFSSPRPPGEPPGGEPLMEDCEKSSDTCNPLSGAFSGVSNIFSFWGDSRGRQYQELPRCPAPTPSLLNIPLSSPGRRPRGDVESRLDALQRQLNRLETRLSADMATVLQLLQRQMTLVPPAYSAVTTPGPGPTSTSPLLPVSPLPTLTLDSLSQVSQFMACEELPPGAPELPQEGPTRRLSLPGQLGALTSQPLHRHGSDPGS
T1 sequence (P30874 whole entry): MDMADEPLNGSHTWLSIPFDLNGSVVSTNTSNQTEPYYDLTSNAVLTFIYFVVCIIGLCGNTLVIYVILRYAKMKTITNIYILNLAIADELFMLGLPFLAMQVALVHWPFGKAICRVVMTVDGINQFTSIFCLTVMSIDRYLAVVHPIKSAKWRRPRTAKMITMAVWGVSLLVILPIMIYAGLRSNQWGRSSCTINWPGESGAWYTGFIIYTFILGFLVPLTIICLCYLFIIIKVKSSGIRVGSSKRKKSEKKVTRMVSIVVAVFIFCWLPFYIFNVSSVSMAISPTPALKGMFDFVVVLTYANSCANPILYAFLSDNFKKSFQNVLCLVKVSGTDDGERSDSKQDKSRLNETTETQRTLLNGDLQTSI

Row | SMILES | EC50 (human SSTR2) [nM] | IC50 (hERG K+ channel) [nM] | inhibition in vivo at 1 mg/kg (GH secretion) [%] | phospholipidosis induction ability (judgement) [1] | concentration at which judged to be positive in phospholipidosis induction ability [1] [µM]
1 | COc1cc2nc(-c3cncc(-c4cc(F)cc(F)c4)c3N3CC[C@@H](NCCC(F)(F)F)[C@@H](O)C3)[nH]c2cc1F [Example 5(6), (3S,4R)-1-[3-(3,5-difluorophenyl)-5-(6-fluoro-5-methoxy-1H-benzimidazol-2-yl)-4-pyridinyl]-4-[(3,3,3-trifluoropropyl)amino]-3-piperidinol] | 0.067 | ≥ 10000 | 83 | negative | 
2 | COc1ccc2nc(-c3c(C)ncc(-c4cc(F)cc(Cl)c4)c3N3CC[C@@H](NC4COC4)[C@@H](O)C3)[nH]c2c1 [Example 3, (3S,4R)-1-[5-(3-chloro-5-fluorophenyl)-3-(6-methoxy-1H-benzimidazol-2-yl)-2-methyl-4-pyridinyl]-4-(3-oxetanylamino)-3-piperidinol] | 0.027 | ≥ 10000 |  | negative | 
3 | COc1ccc2nc(-c3cncc(-c4cc(F)ccc4F)c3N3CC[C@@H](N)[C@@H](O)C3)[nH]c2c1 [Example 4(15), (3S,4R)-4-amino-1-[3-(2,5-difluorophenyl)-5-(6-methoxy-1H-benzimidazol-2-yl)-4-pyridinyl]-3-piperidinol] | 0.012 | 9100 |  |  | 25
4 | COc1cc(F)cc(-c2cncc(-c3nc4cc(F)c(F)cc4[nH]3)c2N2CC[C@@H](NCCC(F)(F)F)[C@@H](O)C2)c1 [Example 5(5), (3S,4R)-1-[3-(5,6-difluoro-1H-benzimidazol-2-yl)-5-(3-fluoro-5-methoxyphenyl)-4-pyridinyl]-4-[(3,3,3-trifluoropropyl)amino]-3-piperidinol] | 0.42 | ≥ 10000 |  | negative | 
5 | N[C@@H]1CCN(c2c(-c3cc(F)cc(F)c3)cncc2-c2nc3ccccc3[nH]2)C[C@@H]1O [Example 4(4), (3S,4R)-4-amino-1-[3-(1H-benzimidazol-2-yl)-5-(3,5-difluorophenyl)-4-pyridinyl]-3-piperidinol] | 0.0093 | 6700 |  |  | 25
6 | O[C@H]1CN(c2c(-c3cc(F)cc(Cl)c3)cncc2-c2nc3cc(F)c(F)cc3[nH]2)CC[C@H]1NCCC(F)(F)F [Example 5(3), (3S,4R)-1-[3-(3-chloro-5-fluorophenyl)-5-(5,6-difluoro-1H-benzimidazol-2-yl)-4-pyridinyl]-4-[(3,3,3-trifluoropropyl)amino]-3-piperidinol] | 0.28 | ≥ 10000 |  | negative | 

Continued, in another order:

Row | EC50 (human SSTR2) [nM] | SMILES | IC50 (hERG K+ channel) [nM] | inhibition in vivo at 1 mg/kg (GH secretion) [%] | phospholipidosis induction ability (judgement) [1] | concentration at which judged to be positive in phospholipidosis induction ability [1] [µM]
7 | 0.015 | N[C@@H]1CCN(c2c(-c3cc(F)cc(F)c3)cncc2-c2nc3cc(F)c(F)cc3[nH]2)C[C@@H]1O [Example 4, (3S,4R)-4-amino-1-[3-(5,6-difluoro-1H-benzimidazol-2-yl)-5-(3,5-difluorophenyl)-4-pyridinyl]-3-piperidinol] | 6900 |  |  | ≥ 12.5
8 | 0.023 | Cc1ncc(-c2cc(F)cc(Cl)c2)c(N2CC[C@@H](NC3COC3)[C@@H](O)C2)c1-c1nc2cc(F)c(F)cc2[nH]1 [Example 3(5), (3S,4R)-1-[5-(3-chloro-5-fluorophenyl)-3-(5,6-difluoro-1H-benzimidazol-2-yl)-2-methyl-4-pyridinyl]-4-(3-oxetanylamino)-3-piperidinol] | 9600 | 83 | negative | 
9 | 0.016 | COC(=O)c1cc(F)cc2nc(-c3c(C)ncc(-c4cc(F)ccc4F)c3N3CC[C@@H](N)[C@@H](O)C3)[nH]c12 [Example 2(12), Methyl 2-{4-[(3S,4R)-4-amino-3-hydroxy-1-piperidinyl]-5-(2,5-difluorophenyl)-2-methyl-3-pyridinyl}-5-fluoro-1H-benzimidazole-7-carboxylate] | 9400 |  |  | 
10 | 0.019 | COC(=O)c1cc(F)cc2nc(-c3c(C)ncc(-c4cc(F)cc(Cl)c4)c3N3CC[C@@H](N)[C@@H](O)C3)[nH]c12 [Example 2(3), Methyl 2-{4-[(3S,4R)-4-amino-3-hydroxy-1-piperidinyl]-5-(3-chloro-5-fluorophenyl)-2-methyl-3-pyridinyl}-5-fluoro-1H-benzimidazole-7-carboxylate] | 5200 | 76 |  | 12.5
11 | 0.47 | CCN[C@@H]1CCN(c2c(-c3cc(F)cc(F)c3)cnc(C)c2-c2nc3cc(F)c(F)c(F)c3[nH]2)C[C@@H]1O [Example 3(15), (3S,4R)-1-[5-(3,5-difluorophenyl)-2-methyl-3-(5,6,7-trifluoro-1H-benzimidazol-2-yl)-4-pyridinyl]-4-(ethylamino)-3-piperidinol] | 5800 | 66 |  | 
12 | 0.081 | COC(=O)c1cc(F)cc2nc(-c3c(N4CCOCC4)ncc(-c4cc(F)cc(F)c4)c3N3CC[C@@H](N)[C@@H](O)C3)[nH]c12 [Example 6, Methyl 2-{4-[(3S,4R)-4-amino-3-hydroxy-1-piperidinyl]-5-(3,5-difluorophenyl)-2-(4-morpholinyl)-3-pyridinyl}-5-fluoro-1H-benzimidazole-7-carboxylate] | 4400 |  |  | 50
13 | 0.017 | Cc1ncc(-c2cc(F)cc(F)c2)c(N2CC[C@@H](N)[C@@H](O)C2)c1-c1nc2cc(F)c(F)c(F)c2[nH]1 [Example 2(13), (3S,4R)-4-amino-1-[5-(3,5-difluorophenyl)-2-methyl-3-(5,6,7-trifluoro-1H-benzimidazol-2-yl)-4-pyridinyl]-3-piperidinol] | ≥ 10000 |  |  | 
14 | 0.056 | CCN[C@@H]1CCN(c2c(-c3cc(F)cc(F)c3)cnc(C)c2-c2nc3cc(F)c(OC)cc3[nH]2)C[C@@H]1O [Example 3(4), (3S,4R)-1-[5-(3,5-difluorophenyl)-3-(5-fluoro-6-methoxy-1H-benzimidazol-2-yl)-2-methyl-4-pyridinyl]-4-(ethylamino)-3-piperidinol] | ≥ 10000 | 71 |  | 
15 | 0.032 | Cn1cc(-c2ncc(-c3cc(F)cc(F)c3)c(N3CC[C@@H](N)[C@@H](O)C3)c2-c2nc3cc(F)c(F)cc3[nH]2)cn1 [Example 1(2), (3S,4R)-4-amino-1-[3-(5,6-difluoro-1H-benzimidazol-2-yl)-5-(3,5-difluorophenyl)-2-(1-methyl-1H-pyrazol-4-yl)-4-pyridinyl]-3-piperidinol] | ≥ 10000 |  | negative | 
